Assay results taken from patent US7491849B2, “Oligoamine compounds and derivatives thereof for cancer therapy” (priority 2001, dated 2009).

Legend:
DuPro Cells = test: Cellular polyamine and oligoamine levels, DuPro cells (HPLC); format: cell-based
Protocol: (§1) Cellular Uptake of Oligoamines. There was considerable uptake of oligoamines by the cancer cell lines; see Table 3A (DuPro cells) and Table 3B (PC-3 cells). […] While not wishing to be limited by any particular theory of operation, the cytotoxicity is likely related to their strong aggregation effect on DNA.
(§2) Polyamine Analysis. An appropriate number of cells were taken from harvested samples and centrifuged at 1000 rpm at 4° C. for 5 min. The cells were washed twice with chilled Dulbecco's isotonic phosphate buffer (pH 7.4) by centrifugation at 1000 rpm at 4° C. and resuspended in the same buffer. After the final centrifugation, the supernatant was decanted, and […] of 8% sulfosalycilic acid was added to the cell pellet. The cells were sonicated, and the mixture was kept at 4° C. for at least 1 h. After centrifugation at 8000 g for 5 min, the supernatant was removed for analysis. An appropriate volume (50-100 μl) was fluorescence-labeled by derivatizing with dansyl chloride. Labeled polyamines were loaded onto a C-18 high-performance liquid chromatography column and separated by gradient elution with acetonitrile/water at 50° C. Peaks were detected and quantitated using Shimadzu HPLC fluorescence monitor coupled with a Spectra-Physics peak integrator. Because polyamine levels vary with environmental conditions, control cultures were sampled for each experiment.

DuPro = test: MTT assay, tumor cell growth, DuPro; format: cell-based; details: 6 days incubation, read-out: ID50 (μM) values for Human Tumor Cell Lines, DuPro
Protocol: (§3) Effect of Saturated Oligoamines on Human Prostate Tumor Cell Growth by the MTT assay. Saturated oligoamines inhibited prostate cancer cell growth in vitro. DU-145 cells were most sensitive and PC-3 cells were less sensitive to the effects of oligoamines. In general, ID50 values of less than 0.5 μM were obtained (Table 2). Even though the PC-3 cells were relatively more resistant to the oligoamines, at a 5 μM concentration the oligoamines reduced the cell number to less than 1% of the control on day 6 of incubation. Tissue cultures and the MTT assay were performed as follows.
(§4) Tissue Culture. Cells were seeded into 75 cm^2 culture flasks with 15 ml of Eagle's minimal essential medium supplemented with 10% fetal calf serum and nonessential amino acids. The flasks were incubated in a humidified 95% air/5% CO2 atmosphere. The cells were grown for at least 24 h to ensure that they are in the log phase of growth and then they were treated with the oligoamines. Cells were harvested by treatment for 5 min with STV (saline A, 0.05% trypsin, 0.02% EDTA) at 37° C. The flasks were rapped on the lab bench, pipetted several times and aliquots of cell suspension were withdrawn and counted using a Coulter particle counter that has been standardized for counting each cell line using a hemacytometer.
(§5) MTT Assay: Trypsinized cell suspensions were diluted to seed 80 μl suspensions containing 500 cells in each well of a 96 well Corning microtiter plate and incubated overnight at 37° C. in a humidified incubator in 5% CO2. 20 μl of appropriately diluted stock solution of each drug were added to the middle 8 columns of cell suspension in the microtiter plates. Each drug concentration was run in quadruplicate. Outer columns of the plates were used for buffer controls. Cells were incubated with the drug for 6 days at 37° C. in 5% CO2/H2O atmosphere. 25 μl of 5 mg/ml solution of 3-(4,5-dimethylthiazol-2-yl)-2,5-diphenyl tetrazolium bromide (MTT) were added to each well and incubated for 4 hours at 37° C. in 5% CO2/H2O incubator. Cells were lysed by incubating overnight with 100 μl lysis buffer (500 ml of the lysis buffer contains: 100 g lauryl sulfate (SDS), 250 ml of N,N-dimethylformamide, and 2 ml of glacial acetic acid, made up to volume with water; pH 4.8).
(§6) The color was monitored at room temperature at 570 nm in a E-max Precision Microplate Reader (Molecular Devices Corporation, Sunnyvale, Calif.) and data was analyzed using cell survival software supplied by Molecular Devices Corporation.

DU145 = test: MTT assay, tumor cell growth, DU145; format: cell-based; details: 6 days incubation, read-out: ID50 (μM) values for Human Tumor Cell Lines, DU145
Protocol: as §3, §4, §5, §6

LnCap = test: MTT assay, tumor cell growth, LnCap; format: cell-based; details: 6 days incubation, read-out: ID50 (μM) values for Human Tumor Cell Lines, LnCap
Protocol: as §3, §4, §5, §6

PC-3 = test: MTT assay, tumor cell growth, PC-3; format: cell-based; details: 6 days incubation, read-out: ID50 (μM) values for Human Tumor Cell Lines, PC-3
Protocol: as §3, §4, §5, §6

PC-3 Cells = test: Cellular polyamine and oligoamine levels, PC-3 cells (HPLC); format: cell-based
Protocol: as §1, §2

Calf-thymus DNA = Calf-thymus DNA aggregation (absorbance at 320 nm); format: biochemical; details: 50 mM NaCl, 1 mM Na-cacodylate pH 7.0
Protocol: Calf-thymus DNA aggregation by spermine and oligoamines.
Test for DNA Aggregation: DNA aggregation was studied using a Perkin-Elmer Lambda 25 UV/visible spectrophotometer connected to a PTP 6 heating unit using a previously published procedure (see Basu, H S and Marton, L J, “The interaction of spermine and pentamines with DNA,” Biochemical Journal 244:243-246 (1987)). Aggregation was determined in 50 mM NaCl, 1 mM Na-cacodylate pH 7.0 buffer by observing the increase in DNA absorbance (approximately 0.5 A260 units) at 320 nm.

[1] = Day 4 of Treatment, analog conc. 0.8 μM
[2] = Day 4 of Treatment, analog conc. 1.6 μM
[3] = Day 6 of Treatment, analog conc. 0.8 μM
[4] = PC-3, Day 4 of Treatment, analog conc. 1 μM
[5] = PC-3, Day 4 of Treatment, analog conc. 5 μM
[6] = PC-3, Day 6 of Treatment, analog conc. 1 μM

Polyamine levels, Analog (cellular oligoamine level) (DuPro Cells; [1]) [nmoles/10^6 cells]	Polyamine levels, Analog (cellular oligoamine level) (DuPro Cells; [2]) [nmoles/10^6 cells]	Polyamine levels, Analog (cellular oligoamine level) (DuPro Cells; [3]) [nmoles/10^6 cells]	IC50 (DuPro) [µM]	IC50 (DU145) [µM]	IC50 (LnCap) [µM]	IC50 (PC-3) [µM]	Polyamine levels, Analog (cellular oligoamine level) (PC-3 Cells; [4]) [nmoles/10^6 cells]	Polyamine levels, Analog (cellular oligoamine level) (PC-3 Cells; [5]) [nmoles/10^6 cells]	Polyamine levels, Analog (cellular oligoamine level) (PC-3 Cells; [6]) [nmoles/10^6 cells]	Compound	Polyamine levels, Put (DuPro Cells; [1]) [nmoles/10^6 cells]	Polyamine levels, Spm (DuPro Cells; [1]) [nmoles/10^6 cells]	Polyamine levels, Put (DuPro Cells; [2]) [nmoles/10^6 cells]	Polyamine levels, Put (DuPro Cells; [3]) [nmoles/10^6 cells]	Conc. (μM) at the start of DNA Aggregation (Calf-thymus DNA) [µM]	further results
0.145	0.150	0.023	0.35	0.24	0.32	0.5	0.055	0.128	0.08	CCNCCCCNCCCCNCCCCNCCCCNCCCCNCCCCNCCCCNCCCCNCCCCNCCCCNCCCCNCCCCNCCCCNCC.Cl.Cl.Cl.Cl.Cl.Cl.Cl.Cl.Cl.Cl.Cl.Cl.Cl.Cl [SL-11175]	0.157	0.050	0.410	0.155	2.0	Polyamine levels, Put (PC-3 Cells; [4]): 0.515 nmoles/10^6 cells; Polyamine levels, Put (PC-3 Cells; [5]): 0.519 nmoles/10^6 cells; Polyamine levels, Put (PC-3 Cells; [6]): 0.76 nmoles/10^6 cells
0.575	0.775	0.410	0.55	0.13	0.15	0.4	0.005	0.011	0.007	CCNCCCCNCCCCNCCCCNCCCCNCCCCNCCCCNCCCCNCC.Cl.Cl.Cl.Cl.Cl.Cl.Cl.Cl [SL-11160]	0.430	0.222	0.412	0.675	4.5	Polyamine levels, Spd (DuPro Cells; [1]): 0.897 nmoles/10^6 cells; Polyamine levels, Spm (DuPro Cells; [2]): 0.195 nmoles/10^6 cells; Polyamine levels, Spd (DuPro Cells; [3]): 1.470 nmoles/10^6 cells; Polyamine levels, Spm (DuPro Cells; [3]): 0.290 nmoles/10^6 cells; Polyamine levels, Spd (PC-3 Cells; [4]): 0.097 nmoles/10^6 cells; Polyamine levels, Spm (PC-3 Cells; [4]): 0.502 nmoles/10^6 cells; Polyamine levels, Spd (PC-3 Cells; [5]): 0.077 nmoles/10^6 cells; Polyamine levels, Spm (PC-3 Cells; [5]): 0.525 nmoles/10^6 cells; Polyamine levels, Spd (PC-3 Cells; [6]): 0.085 nmoles/10^6 cells; Polyamine levels, Spm (PC-3 Cells; [6]): 0.180 nmoles/10^6 cells
										NCCCNCCCCNCCCN [Spermine, reference compound]					88.5	
